{"source": "patent US20250170239A1", "about": "“CELLULAR REPROGRAMMING BY TARGETING THE GOLGI APPARATUS” (MUSC Foundation for Research Development, priority 2023, published 2025)", "test_system": "human PBMCs", "conditions": "vehicle control or 0.5 mM GYY4137", "protocol": "(FIG. 21A) Levels of intracellular glutathione assessed using FACS by employing ThiolTracker Violet dye in control CD19 CAR-T cells or CAR-T cells overexpressing Cbs (CbstdCD19-CAR-T) (n=3). (FIG. 21B) 12 hour Thapsigargin (700 nM) treatment was used to induce ER stress in WT T cells, Cbs-KO T cells, and Cbs-KO T cells+H2S. Levels of phosphorylated PERK were assessed by FACS (n=3). (FIG. 21C) Pmel T cells were treated with either Thapsigargin (700 nM) or Monensin (1 mM) for 12 hours, followed by staining for phosphorylated PERK (p-PERK) and GM130 to assess ER stress and Golgi stress, respectively (n=4). (FIG. 21D) Activated Pmel T cells were treated for 12 hours with either vehicle control or 1 mM Monensin (“+Golgi stress”) before being stained for giantin to assess Golgi dispersion. […] (FIG. 21E) Representative confocal microscopy images of mitochondria (Tom20) and Golgi (giantin) in human PBMCs treated with vehicle control or 0.5 mM GYY4137.\nAlexa Fluor 488 (anti-Giantin) and Alexa Fluor 647 (anti-TOMM20) fluorescence were imaged in a Zeiss LSM 880 NLO inverted laser scanning confocal microscope (Thornwood, NY) using a 63× 1.4 N.A. plan-apochromat oil immersion lens. Alexa Fluor 488 and Alexa Fluor 647 were excited at 488 nm and 633 nm, respectively. Emitted light was detected with an Airyscan super-resolution detector at BP 495-550 nm for Giantin label and LP 654 nm for TOMM20. […]"}
{"smiles": "C1COCCN1.COc1ccc(P(=S)(S)N2CCOCC2)cc1", "note": "(stereo not shown) [GYY4137]", "values": [{"measurement": "Golgi organization (giantin, confocal)", "value": "more compact Golgi organization"}]}
